The source of these data is paper PMC8196835, “Antibacterial Properties of Small-Size Peptide Derived from Penetratin against Oral Streptococci” (Materials, 2021).

One series relates to S. oralis (ATCC No 9811). It counts as cell-based, Streptococci oralis. To be noted: ATCC No 9811, 24 h. How it is done: (§1) The bacterial strains S. oralis (ATCC No 9811), S. sanguinis (ATCC No 10556), and S. gordonii (ATCC No 10558) were purchased from the ATCC (American Type Culture Collection, Manassas, VA, USA). The cultivation method was the same as that described in a previous article.
(§2) The bacterial growth inhibiting ability of the peptide was determined using a broth microdilution-based method with modifications. […] The start inoculum was 5 × 10^7 CFU mL^−1, and the MIC was denoted as the lowest concentration of peptides where bacterial growth was stopped. After bacteria were treated with RR9 for 24 h, 20 uL was removed from each sample and spread on a brain heart infusion (BHI) agar plate. The CFU on plates were counted after incubation at 37 °C for 5 days. The MBC is the concentration of RR9 where over 99.9% of the cells were inhibited.

Series [1] relates to S. sanguinis (ATCC No 10556). The format is cell-based, Streptococci sanguinis. Conditions: ATCC No 10556, 24 h. As for the experimental part: as §1, §2
Series [2] has as its system S. gordonii (ATCC No 10558). It counts as cell-based, Streptococci gordonii. To be noted: ATCC No 10558, 24 h. How it is done: as §1, §2
For series [3], the system named is planktonic oral streptococci (S. oralis, S. sanguinis, S. gordonii). The experiment in a line: Time-kill assay. It counts as cell-based. As for the experimental part:
To evaluate the effect of RR9 on planktonic oral streptococci, the time-killing assay was used. First, 200 μL of RR9 solution and 800 μL of BHI broth were mixed with 1 mL of bacterial culture (5 × 10^7 CFU mL^−1), yielding 2 mL of the final volume with 100%, 200%, or 400% of the MBC final peptide concentrations. After 0, 0.25, 0.5, 1, 2, 4, 24, and 48 h of incubation at 37 °C, 10 μL of each suspension was pipetted, serially diluted 10 times, and finally transferred to a BHI agar plate for CFU determination. The time–kill kinetic curves were obtained by recording log(CFU mL^−1) as a function of incubation time […].

In series [4] the test system is streptococci biofilm (S. oralis, S. gordonii, S. sanguinis). The experiment in a line: Biofilm susceptibility, crystal violet. The format is cell-based. Conditions: RR9 25 μg mL^−1 (MIC), 24 h, n = 3, p < 0.05. As for the experimental part: The antibacterial agents were evaluated by the microdilution method to study their impact on biofilm formation. In our study, streptococci (5 × 10^7 CFU mL^−1) mixed with RR9 were cultured for 24 h. The formed biofilm was fixed using methanol (95%) and stained using 0.5% (w/v) crystal violet, and the final OD at 600 nm was measured.

Series [5] has the same test system. The format is cell-based. Conditions: RR9 25 μg mL^−1, 24 h at 37 °C, preformed 24 h biofilm, AO/EB. As for the experimental part: Each bacteria suspension (300 μL) was mixed with BHI broth (900 μL) and then cultured for 24 h in a 24-well microtiter plate for biofilm formation. After the removal of the medium and unattached bacterial cells, RR9 (25 μg mL^−1) with saliva or serum was added, and the resulting samples were cultured for another 24 h at 37 °C. After the staining of the attached bacteria using an acridine orange/ethidium bromide (AO/EB) solution (Solarbio, Beijing, China), CLSM (Leica SP8, Oskar-Barnack-Strae Germany) was used to count the number of observed bacterial cells. For each biofilm strain, three representative areas per lens were scanned in at least three separate experiments. The images were captured using MetaMorph software (Universal Imaging, West Chester, PA, USA).

Series [6] concerns streptococci biofilms and cell membranes. As to the kind of experiment: SEM and TEM observation of bacterial morphology. The format is cell-based, S. oralis, S. gordonii, S. sanguinis. To be noted: RR9 25 μg mL^−1, 24 h (SEM), 12 h (TEM). The text has this:
The morphology of the formed biofilm was observed using scanning electron microscopy (SEM, SUPRA 55VP, Germany) following previously published procedures. Additionally, the transmission electron microscopy (TEM, JEM-2100F; JEOL Ltd., Tokyo, Japan)-based technique was employed for the structural analysis of RR9 cells according to the previously reported method. For more details, please check Appendix A.
A sterile coverslip was placed in a 24-well plate and was as described above. The coverslips with biofilms were fixed with 2.5% (v/v) glutaraldehyde, and the samples were dehydrated with increasing concentrations of ethanol for 15 min each. Prior to field-emission SEM, the samples were subjected to gold sputtering.
After incubation with RR9 (25 μg mL^−1) or without the peptide (control group) for 12 h at 37 °C in an anaerobic chamber (N2: 80%; H2: 10%; CO2: 10%), super-thin slice samples were prepared for TEM using a previously reported method. The cells were fixed with 2.5% glutaraldehyde at 4 °C for 4 h and, then, dyed with 2% uranyl acetate and 0.2% citrate before being observed under electron.

The subject of another series is sspA gene of S. gordonii. The experiment in a line: RT-PCR of sspA gene expression. It counts as cell-based. To be noted: RR9 25 μg mL^−1 (MIC), 24 h, p < 0.05. As for the experimental part: Trizol reagent was employed to extract the total RNA of S. gordonii cells, following the manufacturer’s instructions. The first strand of cDNA was synthesized by the retrotranscription of 2 μL of RNA (Invitrogen, TRIzol Max Bacterial RNA Isolation Kit). The cDNA was amplified to a final volume of 20 μL by 45 cycles in a DNA thermal circulatory apparatus. Pre-denaturation was carried out at 95 °C for 15 s, and the reaction was performed at 95 °C for 10 s, 60 °C for 20 s, and 72 °C for 30 s. The primer sequences of the differentiation markers are shown in Table A1 in Appendix B. After amplification, GAPDH was defined as the internal reference gene, and the sample of the control group was set as the standard to obtain the CT value of each target gene for each sample. The data were analyzed using the relative quantification of ΔCT. The relative quantitative (RQ) values of all target genes were obtained according to the formula RQ = 2^−ΔΔCT.

For series [7], the system named is human gingival fibroblasts (HGFs). It counts as cell-based. Conditions: RR9 25 μg mL^−1, 1–4 days, CCK-8 OD 450 and AO/EB CLSM. How it is done:
HGFs were purchased from Procell Life Science & Technology (Wuhan, China). Cells from passages 4 to 6 were used. The cultivation method was described previously.
The HGFs (2 × 10^3 cells per well) were cultured in DMEM supplemented with 10% FBS in a humidified incubator (37 °C, 5% CO2 atmosphere) for 24 h. Pretreatment of the cells was conducted by incubating with 25 μg mL^−1 RR9 for 1, 2, 3, and 4 days. Untreated cells were used as a negative control. The samples were characterized using the Cell Counting Kit-8 (Dojindo Laboratories, Kumamoto, Japan) by measuring their absorbance at 450 nm using a microplate reader (BioTek Synergy HT, Vermont, USA). After staining using AO/EB live/dead dye, the viability of seeded cells on the sterile coverslips was determined using CLSM. Each sample consisted of five wells.

The test system of a further series is tested bacteria. Conditions: cited from earlier work. The text has this:
To overcome the drawbacks of using cationic peptides as a new generation of antibiotics, researchers began to synthesize new short peptides by reducing the residue of the peptide chain for use as candidate drugs in clinical trials. […] Therefore, we aimed to figure out the antibacterial activity of RR9 on initial oral colonizers, specifically S. oralis, S. gordonii, and S. sanguinis ... || Antibiotics are used excessively and inappropriately in clinic. As a result, it directly leads to the weakening of the effect of antibiotics and the emergence of drug-resistant pathogens. Among new biomedical alternatives, antimicrobial peptides (AMPs) and cell-penetrating peptides (CPPs) are considered promising candidates. CPPs are a new carrier that can pass through the cell membrane without cell surface receptor recognition and can deliver therapeutic drugs to the cell membrane. One of the most well-known examples of CPPs is penetratin (RQIKIWFQNRRMKWK ...

Another series concerns mammalian cells. Conditions: cited from earlier work. From the text: Antibiotics are used excessively and inappropriately in clinic. As a result, it directly leads to the weakening of the effect of antibiotics and the emergence of drug-resistant pathogens. Among new biomedical alternatives, antimicrobial peptides (AMPs) and cell-penetrating peptides (CPPs) are considered promising candidates. CPPs are a new carrier that can pass through the cell membrane without cell surface receptor recognition and can deliver therapeutic drugs to the cell membrane. One of the most well-known examples of CPPs is penetratin (RQIKIWFQNRRMKWK ...

Values after ≈ are worked out from the molar mass of the structure shown. Residues, ends and D or L forms follow the SMILES beside them.

`CC[C@H](C)[C@H](NC(=O)[C@H](CCC(N)=O)NC(=O)[C@@H](N)CCCNC(=N)N)C(=O)N[C@@H](CCCNC(=N)N)C(=O)N[C@@H](CCCNC(=N)N)C(=O)N[C@@H](Cc1c[nH]c2ccccc12)C(=O)N[C@@H](Cc1c[nH]c2ccccc12)C(=O)N[C@@H](CCC(N)=O)C(=O)N[C@@H](CCCNC(=N)N)C(N)=O` [RR9, Arg-Gln-Ile-Arg-Arg-Trp-Trp-Gln-Arg-NH2] (H-RQIRRWWQR-NH2; N-terminus assumed): the results for the MBC (against S. oralis (ATCC No 9811); in [1]; in [2]) were 62.5 µg/mL (≈ 45.2 µM), 62.5 µg/mL (≈ 45.2 µM) and 50 µg/mL (≈ 36.1 µM), respectively. The MIC (in the series on S. oralis (ATCC No 9811); in series [1]; in series [2]) was 25 µg/mL (≈ 18.1 µM) each time. Besides, in series [3] (100%, 200% or 400% of the MBC, 37 °C, all tested strains), the “time to complete bacterial death” value fell in the range of 24 to 48 h. For the same compound, in [3] (time-kill over 48 h), the “duration of the antimicrobial effect” value turned out to be 44 h. For the same compound, the “biofilm formation, OD at 600 nm versus control” value in [4] is “reduced OD value”. Further, the “anti-biofilm effect of RR9 with saliva or serum compared with RR9 alone (CLSM live/dead)” value in [5] was “No significant difference”. Also, the “bacterial morphology and membrane integrity (SEM, TEM)” value in series [6] is “the bacteria swelled, and some cell membranes were damaged”. For the same compound, in the series with sspA gene of S. gordonii, the “expression of the sspA gene versus control” value is “significantly reduced”. The “cytotoxicity toward HGFs” value in [7] is listed as “negligible cytotoxicity”. Besides, the “antimicrobial effect against selected bacteria” value with tested bacteria is “strong antimicrobial effect”.

With “RQIKIWFQNRRMKWKK-NH2 [penetratin, well-known cell-penetrating peptide, …-NH2]”, the “bactericidal effect on the tested bacteria” value in the series on tested bacteria is “strong bactericidal effect”. Also, the “cytotoxicity toward mammalian cells” value with mammalian cells is given as “without any cytotoxicity”.

One may read the MBC as the lowest tested concentration that kills the bacteria rather than only halting them. A lower MBC goes with more potent killing. As usually defined, the MIC is the lowest concentration found to suppress growth. Read a low MIC as a more susceptible organism.
